{
  "source": "patent US20220372024A1",
  "about": "“CRYSTALLINE FORMS OF ENTRECTINIB” (Johnson Matthey Public Limited Company, priority 2019, published 2022)",
  "assay_type_in_all_cases": "physicochemical",
  "key": {"[1]": {"test": "Intrinsic dissolution rate (IDR), Sirius inForm", "details": "pH 2.8, 37° C., 3 mm disc", "text": "Data were collected on a Sirius inForm instrument fitted with a dual UV Dip Probe attachment and Ag/AgCl combination pH electrode. The electrode was calibrated using the four plus parameters derived from a blank titration. The base titrant was standardised by titration with TRIS. 0.5 M HCl and NaOH aqueous solutions were used as the acid and base titrants respectively for the testing. Stirring was facilitated by a dual overhead stirrer to allow thorough mixing within the vessel, and media was introduced via a capillary bundle attached to a dispensing bank comprised of six precision dispensing units. A Peltier heating jacket was used to maintain the temperature of the titration vessel. Discs were introduced to the vessel via the tablet picker housed in the probe arm, after the desired temperature of the media had been reached. Sirius inForm Assay Design, Control and Refine software were used to design, run and refine data respectively. The reference sample was prepared as a 10.1 mM stock solution in DMSO. MEC data was then collected using UV metric method with initial addition of 100 μl of DMSO stock. UV Spectra were then collected from low to high pH (pH 2-12) in two titrations using a 5 mm path length. The MEC data set was then imported into the dissolution data files in order to convert the UV absorbance measured to concentration. The concentration range for UV data collected was […]. MEC data were collected in the dissolution media (36 ml of ISA water+4 ml of GI Tract buffer) and at 37° C. to match the dissolution experiments. Ca. 8-20 mg of the sample was compressed in a 3 mm disc recess, under 100 kg for 2 minutes, with greaseproof paper on the compression base, to form non-disintegrating discs. The discs were then plugged with a bung so that only one surface was exposed to the media during analysis and transferred to the Sirius inForm dissolution apparatus. […] The IDR was calculated based on the surface area of the 3 mm disc recess used (7.07 mm^2 surface area). […]"}, "[2]": {"test": "Storage stability of the crystalline form (XRPD diffractogram and chemical purity)", "details": "28 days storage at 40° C./75% RH and 25° C./97% RH", "text": "(§1) Entrectinib anhydrate (Form A) was also characterised as follows: • TGA and DSC analysis (see FIG. 2). • GVS isotherm analysis (see FIG. 3). • XRPD analysis pre- (bottom) and post- (top) GVS (see FIG. […] 5). The XRPD overlays illustrate that entrectinib anhydrate (Form A) is stable under the storage conditions.\nEntrectinib anhydrate (Form C) was also characterised as follows: • TGA and DSC analysis (see FIG. 9). • GVS isotherm analysis (see FIG. 10). • XRPD analysis before (bottom) and after (top) the GVS experiment (see FIG. […] 12). The XRPD overlays illustrate that entrectinib anhydrate (Form C) is stable under the storage conditions (see FIG. 12).\nas §1, with “monohydrate” for “anhydrate”, “G)” for “A)”, “20).” for “2).”, “21).” for “3).”, “23).” for “5).”"}, "[3]": {"test": "Gravimetric vapour sorption (GVS), XRPD after analysis", "details": "25° C., 0-90% RH", "text": "Hygroscopicity of a solid material may be determined by means of gravimetric vapour sorption (GVS) analysis, sometimes known by dynamic vapour sorption (DVS) analysis. The experiment subjects a sample material which is held in a fine wire basket on a microbalance within a temperature and humidity controlled environment (chamber). Using the software, the collected data can then be processed to determine the isotherm points at the increment ranges specified during the experiment and show the overall water uptake of the material. Sorption isotherms were obtained using a SMS DVS Intrinsic moisture sorption analyser, controlled by DVS Intrinsic Control software. The sample temperature was maintained at 25° C. by the instrument controls. The humidity was controlled by mixing streams of dry and wet nitrogen, with a total flow rate of 200 ml/min. The relative humidity was measured by a calibrated Rotronic probe (dynamic range of 1.0-100% RH), located near the sample. The weight change, (mass relaxation) of the sample as a function of % RH was constantly monitored by a microbalance (accuracy ±0.005 mg). Typically, 5-30 mg of sample was placed in a tared mesh stainless steel basket under ambient conditions. The sample was loaded and unloaded at 40% RH and 25° C. (typical room conditions). A moisture sorption isotherm was performed as outlined below (2 scans per complete cycle). The standard isotherm was performed at 25° C. at 10% RH intervals over a 0-90% RH range. Typically, a double cycle (4 scans) was carried out. Data analysis was carried out within Microsoft Excel using the DVS Analysis Suite. [table]"}, "[4]": {"test": "Four hour solubility in buffered media (HPLC quantitation)", "details": "for solubility at 4 h: 25 °C, thermodynamic from solid, read-out: Solubility after 4 hours; for Solubility after 4 hours: 25° C.", "procedure": "Sufficient sample was suspended in 1.0 ml media for a maximum anticipated concentration of ca. 10 mg/ml of the free form of the compound. The resulting suspensions were then shaken at 25° C./750 rpm for 4 hours. The pH of the sample solutions was checked after 1 hour and adjusted as necessary with 0.2 M NaOH to ensure that the desired pH was maintained throughout (±0.2). After equilibration, the appearance was noted, and the final pH of the saturated solution was measured. Samples were then filtered through a glass C′ fibre filter (Particle retention size 1.2 μm). Samples suspended in pH 1.2 buffer were diluted 10 times with pH 1.2 buffer, all other samples were analysed undiluted. Quantitation was by HPLC with reference to a standard solution of approximately 0.15 mg/ml. Different volumes of the standard, diluted and undiluted sample solutions were injected. The solubility was calculated using the peak areas determined by integration of the peak found at the same retention time as the principal peak in the standard injection. [table] [table]"}, "[5]": {"details": "pH 1.2 hydrochloric acid buffer"}},
  "note": "Like-named read-outs stand apart in the source and are kept apart here.",
  "data": [
    {"smiles": "CN1CCN(c2ccc(C(=O)Nc3n[nH]c4ccc(Cc5cc(F)cc(F)c5)cc34)c(NC3CCOCC3)c2)CC1", "note": "[Form A, N-[5-[(3,5-difluorophenyl)methyl]-1H-indazol-3-yl]-4-(4-methylpiperazin-1-yl)-2-(oxan-4-ylamino)benzamide]", "values": [
      {"measurement": "IDR", "setting": "[1]", "value": "pH 2.8: 2.5 mg/min/cm^2"},
      {"measurement": "Stability under the storage conditions (XRPD overlays)", "setting": "[2]", "value": "stable"},
      {"measurement": "Change in form after GVS (XRPD after analysis)", "setting": "[3]", "value": "unchanged"},
      {"measurement": "solubility at 4 h", "setting": "[4]; hydrochloric acid buffer, pH 1.2, simulated gastric fluid, pH 1.2 hydrochloric acid buffer", "value": "> 5000", "unit": "µg/mL"},
      {"measurement": "solubility at 4 h", "setting": "[4]; pH 2.8 buffer, pH 2.8, aqueous buffer, pH 2.8 buffer", "value": "> 5000", "unit": "µg/mL"},
      {"measurement": "Solubility after 4 hours", "setting": "[4]; pH 4.5 acetate buffer", "value": "pH 4.5->5.0 mg/ml"},
      {"measurement": "Solubility after 4 hours", "setting": "[4]; pH 6.8 phosphate buffer", "value": "pH 6.8-0.0024 mg/ml"},
      {"measurement": "Solubility after 4 hours", "setting": "[4]; pH 7.5 phosphate buffer", "value": "pH 7.5-0.0013 mg/ml"}
    ]},
    {"smiles": "CN1CCN(c2ccc(C(=O)Nc3n[nH]c4ccc(Cc5cc(F)cc(F)c5)cc34)c(NC3CCOCC3)c2)CC1", "note": "[Form C, N-[5-[(3,5-difluorophenyl)methyl]-1H-indazol-3-yl]-4-(4-methylpiperazin-1-yl)-2-(oxan-4-ylamino)benzamide]", "values": [
      {"measurement": "IDR", "setting": "[1]", "value": "pH 2.8: 2.5 mg/min/cm^2"},
      {"measurement": "Stability under the storage conditions (XRPD overlays)", "setting": "[2]", "value": "stable"},
      {"measurement": "Change in form after GVS (XRPD after analysis)", "setting": "[3]", "value": "unchanged"},
      {"measurement": "Solubility after 4 hours", "setting": "[4]; [5]", "value": "pH 1.2-4.3 mg/ml"},
      {"measurement": "Solubility after 4 hours", "setting": "[4]; pH 2.8 buffer", "value": "pH 2.8->5.0 mg/ml"},
      {"measurement": "Solubility after 4 hours", "setting": "[4]; pH 4.5 acetate buffer", "value": "pH 4.5-4.0 mg/ml"},
      {"measurement": "Solubility after 4 hours", "setting": "[4]; pH 6.8 phosphate buffer", "value": "pH 6.8-0.0013 mg/ml"},
      {"measurement": "Solubility after 4 hours", "setting": "[4]; pH 7.5 phosphate buffer", "value": "pH 7.5-0.0006 mg/ml"}
    ]},
    {"smiles": "CN1CCN(c2ccc(C(=O)Nc3n[nH]c4ccc(Cc5cc(F)cc(F)c5)cc34)c(NC3CCOCC3)c2)CC1", "note": "[Form G, N-[5-[(3,5-difluorophenyl)methyl]-1H-indazol-3-yl]-4-(4-methylpiperazin-1-yl)-2-(oxan-4-ylamino)benzamide]", "values": [
      {"measurement": "IDR", "setting": "[1]", "value": "pH 2.8: 1.6 mg/min/cm^2"},
      {"measurement": "Stability under the storage conditions (XRPD overlays)", "setting": "[2]", "value": "stable"},
      {"measurement": "Change in form after GVS (XRPD after analysis)", "setting": "[3]", "value": "substantially unchanged"},
      {"measurement": "Solubility after 4 hours", "setting": "[4]; [5]", "value": "pH 1.2->5.0 mg/ml"},
      {"measurement": "Solubility after 4 hours", "setting": "[4]; pH 2.8 buffer", "value": "pH 2.8->5.0 mg/ml"},
      {"measurement": "Solubility after 4 hours", "setting": "[4]; pH 4.5 acetate buffer", "value": "pH 4.5-0.10 mg/ml"},
      {"measurement": "Solubility after 4 hours", "setting": "[4]; pH 6.8 phosphate buffer", "value": "pH 6.8-0.0002 mg/ml"},
      {"measurement": "Solubility after 4 hours", "setting": "[4]; pH 7.5 phosphate buffer", "value": "pH 7.5-0.0002 mg/ml"}
    ]}
  ]
}
